*1 amine or outer side, *2 acyl side, *3 side chain or, on linkers, in order; H or OH if unused. Where a SMILES comes first, the peptide text is derived from it. Bridges are numbered along the chain shown (N, C = ends). [ ]: non-standard residue; d: D form. The star is where a group is joined. X11 = O=C(CN1CCN2CCN3CCN(CC1)CC(=O)[O][In]([O]C(=O)C2)[O]C(=O)C3)NCCCOCCOCCOCCCN*; NH(CH2)5NHDOTA = O=C(O)CN1CCN(CC(=O)O)CCN(CC(=O)NCCCCCN*)CCN(CC(=O)O)CC1; DOTA(In) = O=C1CN2CCN3CCN(CC(=O)*)CCN(CC2)CC(=O)[O][In]([O]1)[O]C(=O)C3; X3 = O=C(O)CN1CCN(CC(=O)O)CCN(CC(=O)NCCCOCCOCCOCCCN*)CCN(CC(=O)O)CC1; NH(1-deoxy-D-glucityl) = OC[C@@H](O)[C@@H](O)[C@H](O)[C@@H](O)CN*; X8 = O=C(O)CN1CCN(CC(=O)O)CCN(CC(=O)N2CCN(*)CC2)CCN(CC(=O)O)CC1; Pro(trans-4-NH2) = O=C([C@@H]1C[C@@H](N[*:3])CN1[*:1])[*:2]; DOTA = O=C(O)CN1CCN(CC(=O)O)CCN(CC(=O)*)CCN(CC(=O)O)CC1; Pro(cis-4-NHAc) = CC(=O)N[C@@H]1CN[C@H](C(=O)O)C1; Trp(5-Cl) = N[C@@H](Cc1c[nH]c2ccc(Cl)cc12)C(=O)O; Pyridine(2,6-diCH2) = c1cc(C[*:1])nc(C[*:2])c1; Pro(4R-NH2) = N[C@H]1CN[C@H](C(=O)O)C1; Glutaryl = O=C(CCCC(=O)[*:2])[*:1]; X6 = c1cc(CSCCN[*:2])nc(C[*:1])c1; X7 = c1cc(CSCCN[*:2])cc(C[*:1])c1; Hyp = O=C(O)[C@@H]1C[C@@H](O)CN1; Suc = O=C(CCC(=O)[*:2])[*:1]; Api = NC1(C(=O)O)CCNCC1; Thp = NC1(C(=O)O)CCOCC1; Aib = CC(C)(N)C(=O)O
How the values were obtained:
[1] = target: T1, GIPR (CHO-K1-hGIPR cells) (Homo sapiens, UniProt P48546); assay: FACS binding assay; conditions: competition with 20 nM GIP-057, 4° C., 1 hour, read-out: pIC50 Category (converted)
T1 construct: host or cells: CHO-K1
T1 sequence (P48546 22-466): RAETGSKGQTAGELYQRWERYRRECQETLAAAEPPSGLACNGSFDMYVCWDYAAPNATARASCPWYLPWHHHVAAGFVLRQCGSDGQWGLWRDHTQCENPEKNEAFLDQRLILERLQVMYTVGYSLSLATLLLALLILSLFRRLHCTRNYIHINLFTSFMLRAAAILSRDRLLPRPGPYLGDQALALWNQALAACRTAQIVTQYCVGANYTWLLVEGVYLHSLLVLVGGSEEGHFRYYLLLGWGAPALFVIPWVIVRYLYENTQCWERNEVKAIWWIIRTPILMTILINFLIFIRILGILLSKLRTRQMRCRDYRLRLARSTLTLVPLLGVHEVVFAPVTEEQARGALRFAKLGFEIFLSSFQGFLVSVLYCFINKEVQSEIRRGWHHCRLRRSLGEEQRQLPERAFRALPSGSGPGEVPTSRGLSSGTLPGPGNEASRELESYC
Procedure, shortened: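 CHO-K1 cells stably expressing human GIPR were detached with Accutase, suspended at 500.000 cells per mL in PBS with 1% FCS, and washed ice-cold. Bound peptide was detected with 1 μg/mL APC-streptavidin for 30 min on ice.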

[2] = target: T2, human GIP receptor (bioGIPR) (Homo sapiens, UniProt P48546); assay: Surface plasmon resonance (SPR) based binding assay; conditions: Single Cycle Kinetic mode, 25° C.; for t1/2 Category: SPR dissociation half-life; for Kd: SPR, 1:1 Langmuir binding model, read-out: pKD Category (converted)
T2 construct: Biotinylate extracellular of the human GIP receptor (bioGIPR, Proteros biostructures GmbH, lot #02/2b); purchased Proteros biostructures GmbH lot #02/2b
T2 sequence (P48546 22-138 limits assumed): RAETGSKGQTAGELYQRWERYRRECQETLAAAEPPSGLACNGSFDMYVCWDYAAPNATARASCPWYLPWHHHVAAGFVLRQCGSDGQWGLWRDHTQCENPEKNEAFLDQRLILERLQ
Procedure, shortened: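 Binding was measured at 25 °C by single-cycle kinetics against a reference flow cell, with blank-run and drift correction, after capturing biotinylated GIPR extracellular domain to ~3500 RU. Running buffer: HBST, 0.1% DMSO. A 1:1 Langmuir model gave kinetic rates, KD, t1/2 and pKD.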

| Compound | IC50 [1] | t1/2 Category [2] | Kd [2] |
| --- | --- | --- | --- |
| CC[C@H](C)[C@@H]1NC(=O)[C@H](CC(C)C)NC(=O)C(C)(C)NC(=O)[C@@H](NC(=O)[C@@H](CC(C)C)NC(=O)[C@H](CCC(=O)O)NC(=O)[C@@H]2C[C@H](NC(C)=O)CN2C(=O)[C@H](Cc2c[nH]c3ccc(Cl)cc23)NC(=O)[C@H](Cc2c[nH]c3ccccc23)NC(=O)[C@H](CC(=O)O)NC(=O)CCC(=O)NCCCOCCOCCOCCCNC(=O)CN2CCN(CC(=O)O)CCN(CC(=O)O)CCN(CC(=O)O)CC2)CSCc2cccc(c2)CSCCNC1=O [GIP-111, DOTA-Ttds-Asp-Trp-5Clw-4Ap(Ac)-Glu-leu-[Cys(3MeBn)-Aib-Leu-Ile-AET]] ({X3-Suc}-DW[Trp(5-Cl)][Pro(cis-4-NHAc)]E[dL]C[Aib]LI; linker 7-C via X7) | < 10 nM | A (t1/2 values>15 min) | 1 to 7.94 nM |
| CC[C@H](C)[C@@H]1NC(=O)[C@H](CC(C)C)NC(=O)C2(CCNCC2)NC(=O)[C@@H](NC(=O)[C@@H](CC(C)C)NC(=O)[C@H](CCC(=O)O)NC(=O)[C@@H]2C[C@@H](N)CN2C(=O)[C@H](Cc2c[nH]c3ccc(Cl)cc23)NC(=O)[C@H](Cc2c[nH]c3ccccc23)NC(=O)[C@H](CC(=O)O)NC(=O)CCC(=O)NCCCOCCOCCOCCCNC(=O)CN2CCN(CC(=O)O)CCN(CC(=O)O)CCN(CC(=O)O)CC2)CSCc2cccc(c2)CSCCNC1=O [GIP-112, DOTA-Ttds-Asp-Trp-5Clw-Tap-Glu-leu-[Cys(2Lut)-Apc-Leu-Ile-AET]] ({X3-Suc}-DW[Trp(5-Cl)][Pro(4R-NH2)]E[dL]C[Api]LI; linker 7-C via X7) | < 10 nM | A (t1/2 values>15 min) | < 1 nM |
| CC[C@H](C)[C@@H]1NC(=O)[C@H](CC(C)C)NC(=O)C2(CCNCC2)NC(=O)[C@@H](NC(=O)[C@@H](CC(C)C)NC(=O)[C@H](CCC(=O)O)NC(=O)[C@@H]2C[C@@H](N)CN2C(=O)[C@H](Cc2c[nH]c3ccc(Cl)cc23)NC(=O)[C@H](Cc2c[nH]c3ccccc23)NC(=O)[C@H](CC(=O)O)NC(=O)CCC(=O)NCCCOCCOCCOCCCNC(=O)CN2CCN(CC(=O)O)CCN(CC(=O)O)CCN(CC(=O)O)CC2)CNCc2cccc(n2)CSCCNC1=O [GIP-113, DOTA-Ttds-Asp-Trp-5Clw-Tap-Glu-leu-[Dap(2Lut)-Apc-Leu-Ile-AET]] | < 10 nM | A (t1/2 values>15 min) | < 1 nM |
| CC[C@H](C)[C@@H]1NC(=O)[C@H](CC(C)C)NC(=O)C2(CCOCC2)NC(=O)[C@@H](NC(=O)[C@@H](CC(C)C)NC(=O)[C@H](CCC(=O)O)NC(=O)[C@@H]2C[C@@H](O)CN2C(=O)[C@H](Cc2c[nH]c3ccc(Cl)cc23)NC(=O)[C@H](Cc2c[nH]c3ccccc23)NC(=O)CCC(=O)O)CSCc2cccc(n2)CSC[C@@H](C(=O)NCCCCCNC(=O)CN2CCN(CC(=O)O)CCN(CC(=O)O)CCN(CC(=O)O)CC2)NC1=O [GIP-117, HO-Succinyl-Trp-5Clw-Hyp-Glu-leu-[Cys(2Lut)-Thp-Leu-Ile-Cys]-Ape-DOTA] (Suc-W[Trp(5-Cl)][Hyp]E[dL]C[Thp]LIC-{NH(CH2)5NHDOTA}; linker 6-10 via Pyridine(2,6-diCH2)) | < 10 nM | A (t1/2 values>15 min) | < 1 nM |
| CC[C@H](C)[C@@H]1NC(=O)[C@H](CC(C)C)NC(=O)C2(CCOCC2)NC(=O)[C@@H](NC(=O)[C@@H](CC(C)C)NC(=O)[C@H](CCC(=O)O)NC(=O)[C@@H]2C[C@@H](O)CN2C(=O)[C@H](Cc2c[nH]c3ccc(Cl)cc23)NC(=O)[C@H](Cc2c[nH]c3ccccc23)NC(=O)CCC(=O)O)CSCc2cccc(n2)CSC[C@@H](C(=O)N2CCN(C(=O)CN3CCN(CC(=O)O)CCN(CC(=O)O)CCN(CC(=O)O)CC3)CC2)NC1=O [GIP-118, HO-Succinyl-Trp-5Clw-Hyp-Glu-leu-[Cys(2Lut)-Thp-Leu-Ile-Cys]-PP-DOTA] (Suc-W[Trp(5-Cl)][Hyp]E[dL]C[Thp]LIC-X8; linker 6-10 via Pyridine(2,6-diCH2)) | < 10 nM | A (t1/2 values>15 min) | < 1 nM |
| CC[C@H](C)[C@@H]1NC(=O)[C@H](CC(C)C)NC(=O)C2(CCNCC2)NC(=O)[C@@H](NC(=O)[C@@H](CC(C)C)NC(=O)[C@H](CCC(=O)O)NC(=O)[C@@H]2CCCN2C(=O)[C@H](Cc2c[nH]c3ccc(Cl)cc23)NC(=O)[C@H](Cc2c[nH]c3ccccc23)NC(=O)[C@H](CC(=O)O)NC(=O)CCC(=O)NCCCOCCOCCOCCCNC(=O)CN2CCN(CC(=O)O)CCN(CC(=O)O)CCN(CC(=O)O)CC2)CSCc2cccc(n2)CSCCNC1=O [GIP-119, DOTA-Ttds-Asp-Trp-5Clw-Pro-Glu-leu-[Cys(2Lut)-Apc-Leu-Ile-AET]] ({X3-Suc}-DW[Trp(5-Cl)]PE[dL]C[Api]LI; linker 7-C via X6) | < 10 nM | A (t1/2 values>15 min) | < 1 nM |
| CC[C@H](C)[C@@H]1NC(=O)[C@H](CC(C)C)NC(=O)C2(CCOCC2)NC(=O)[C@@H](NC(=O)[C@@H](CC(C)C)NC(=O)[C@H](CCC(=O)O)NC(=O)[C@@H]2C[C@@H](NC(=O)CN3CCN(CC(=O)O)CCN(CC(=O)O)CCN(CC(=O)O)CC3)CN2C(=O)[C@H](Cc2c[nH]c3ccc(Cl)cc23)NC(=O)[C@H](Cc2c[nH]c3ccccc23)NC(=O)[C@H](CC(=O)O)NC(C)=O)CSCc2cccc(n2)CSC[C@@H](C(N)=O)NC1=O [GIP-121, Ac-Asp-Trp-5Clw-Tap(DOTA)-Glu-leu-[Cys(2Lut)-Thp-Leu-Ile-Cys]-NH2] (Ac-DW[Trp(5-Cl)][Pro(trans-4-NH2)](DOTA)E[dL]C[Thp]LIC-NH2; linker 7-11 via Pyridine(2,6-diCH2)) | < 10 nM | A (t1/2 values>15 min) | < 1 nM |
| CC[C@H](C)[C@@H]1NC(=O)[C@H](CC(C)C)NC(=O)C2(CCN(C(=O)CN3CCN4CCN5CCN(CC3)CC(=O)[O][In]([O]C(=O)C5)[O]C(=O)C4)CC2)NC(=O)[C@@H](NC(=O)[C@@H](CC(C)C)NC(=O)[C@H](CCC(=O)O)NC(=O)[C@@H]2C[C@@H](O)CN2C(=O)[C@H](Cc2c[nH]c3ccc(Cl)cc23)NC(=O)[C@H](Cc2c[nH]c3ccccc23)NC(=O)[C@H](CC(=O)O)NC(=O)CCCC(=O)NC[C@H](O)[C@@H](O)[C@H](O)[C@H](O)CO)CSCc2cccc(n2)CSCCNC1=O [GIP-146, AGLU-Glutar-Asp-Trp-5Clw-Hyp-Glu-leu-[Cys(2Lut)-Apc(InDOTA)-Leu-Ile-AET]] ({NH(1-deoxy-D-glucityl)-Glutaryl}-DW[Trp(5-Cl)][Hyp]E[dL]C[Api](DOTA(In))LI; linker 7-C via X6) | < 10 nM |  | < 1 nM |
| CC[C@H](C)[C@@H]1NC(=O)[C@H](CC(C)C)NC(=O)C(C)(C)NC(=O)[C@@H](NC(=O)[C@@H](CC(C)C)NC(=O)[C@H](CCC(=O)O)NC(=O)[C@@H]2C[C@@H](O)CN2C(=O)[C@H](Cc2c[nH]c3ccc(Cl)cc23)NC(=O)[C@H](Cc2c[nH]c3ccccc23)NC(=O)[C@H](CC(=O)O)NC(=O)CCC(=O)NCCCOCCOCCOCCCNC(=O)CN2CCN3CCN4CCN(CC2)CC(=O)[O][In]([O]C(=O)C3)[O]C(=O)C4)CSCc2cccc(c2)CSCCNC1=O [GIP-151, InDOTA-Ttds-Asp-Trp-5Clw-Hyp-Glu-leu-[Cys(3MeBn)-Aib-Leu-Ile-AET]] ({X11-Suc}-DW[Trp(5-Cl)][Hyp]E[dL]C[Aib]LI; linker 7-C via X7) | < 10 nM | A (t1/2 values>15 min) | < 1 nM |

Source: US20250296971A1, “GASTRIC INHIBITORY PEPTIDE RECEPTOR LIGANDS” (priority 2021, published 2025)
